These results are taken from patent US11377442B2, “Small molecule agonists and antagonists of NR2F6 activity” (ZANDER THERAPEUTICS, INC., priority 2016, dated 2022).

The structures appear in SMILES notation.

Format in all cases: cell-based
One test deals with T1, NR2F6 (Homo sapiens, UniProt P10588).
T1 construct: expressed in transfected cells; also transient transfection
T1 sequence (P10588 1-404): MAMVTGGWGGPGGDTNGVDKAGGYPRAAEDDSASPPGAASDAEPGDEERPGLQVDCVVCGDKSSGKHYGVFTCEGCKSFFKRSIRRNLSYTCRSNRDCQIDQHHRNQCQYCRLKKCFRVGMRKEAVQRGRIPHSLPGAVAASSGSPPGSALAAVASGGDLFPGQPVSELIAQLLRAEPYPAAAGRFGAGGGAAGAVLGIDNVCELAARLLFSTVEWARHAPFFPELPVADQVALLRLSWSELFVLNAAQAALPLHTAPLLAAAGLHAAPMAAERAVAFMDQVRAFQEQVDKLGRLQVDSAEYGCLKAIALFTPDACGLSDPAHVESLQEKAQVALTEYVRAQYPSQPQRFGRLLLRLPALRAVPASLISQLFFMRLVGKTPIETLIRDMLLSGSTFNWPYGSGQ
Put plainly: NR2F6 agonist screening, Firefly signal cmpd/DMSO. To be noted: Table 14.

A further test has as its system Renilla. Put plainly: Renilla signal in NR2F6 agonist screening, cmpd/DMSO. As to conditions: Renilla, Table 14, read-out: Renilla F4, cmpd/DMSO (mean).
The test system of another test is HEK293 pGL4. Put plainly: Firefly_pGL signal, cmpd/DMSO (pGL4 control cells). To be noted: Homo sapiens, HEK293, Table 14, read-out: Firefly pGL4, cmpd/DMSO (mean).

Consider `CCOC(=O)c1cnc2c(C)cccc2c1NCCCN(C)C` [Compound Z90], for which the “Firefly F4, cmpd/DMSO (mean)” value at NR2F6 (2 uM) was 0.7; on NR2F6 (10 uM) it was 2.5; on NR2F6 (40 uM) it was 0.4. Moreover, the fold induction at 2 µM with Renilla amounted to 0.9; with HEK293 pGL4, 0.7. In addition, the figures for the fold induction at 10 µM in the test with Renilla and in the test on HEK293 pGL4 were 0.2 and 2.4, respectively. Further, the fold induction at 40 µM stood at 0.1 with Renilla and 0.7 with HEK293 pGL4.
In the case of `CCn1cc2c(n1)c(=O)n(Cc1ccccc1)c(=O)n2CC(=O)Nc1ccc(Br)cc1` [Compound L1], the “Firefly F4, cmpd/DMSO (mean)” value at NR2F6 (2 uM) is recorded as 0.9; on NR2F6 (10 uM), 0.5; on NR2F6 (40 uM), 0.5. Also, the fold induction at 2 µM in the test on Renilla and in the test with HEK293 pGL4 was 0.8 throughout. Besides, the fold induction at 10 µM in the test with Renilla was determined as 0.8; with HEK293 pGL4, 0.4. The results for the fold induction at 40 µM in the test with Renilla and with HEK293 pGL4 were 0.7 and 0.8, respectively.
For the compound `Cc1cc(C)c2ncc(C(N)=O)c(NCCCN(C)C)c2c1` [Compound Z83], the “Firefly F4, cmpd/DMSO (mean)” value at NR2F6 (2 uM) is reported as 1.2; on NR2F6 (10 uM) it was 0.6; on NR2F6 (40 uM), 0.7. The fold induction at 2 µM with Renilla and in the test with HEK293 pGL4 was 1 throughout. Also, the fold induction at 10 µM in the test with Renilla turned out to be 0.8; in the test on HEK293 pGL4 it was 0.9. The fold induction at 40 µM was determined as 0.3 with Renilla and 0.5 with HEK293 pGL4.
`CCOC(=O)c1cnc2c(C)cc(C)cc2c1NCc1ccccc1` [Compound Z74]: the “Firefly F4, cmpd/DMSO (mean)” value at NR2F6 (2 uM) is reported as 0.7; at NR2F6 (10 uM), 0.5; on NR2F6 (40 uM), 0.7. For the same compound, the fold induction at 2 µM was 0.8 with Renilla and 0.7 in the test on HEK293 pGL4. The fold induction at 10 µM in the test on Renilla turned out to be 0.2; in the test on HEK293 pGL4 it was 0.6. For the same compound, the fold induction at 40 µM amounted to 0.3 in the test with Renilla and 0.7 in the test on HEK293 pGL4.
Take `COC(=O)c1cnc2c(C)cc(C)cc2c1NCCCN(C)C` [Compound Z81]: the “Firefly F4, cmpd/DMSO (mean)” value came out at 2.4 on NR2F6 (2 uM), 0.7 at NR2F6 (10 uM) and 0.4 at NR2F6 (40 uM). Moreover, the fold induction at 2 µM with Renilla came out at 1.1; in the test on HEK293 pGL4, 1.4. Moreover, the fold induction at 10 µM with Renilla is 0.3; with HEK293 pGL4, 0.9. In addition, the fold induction at 40 µM came to 0.3 in the test on Renilla and 0.7 with HEK293 pGL4.
For `Cc1ccc(NC(=O)c2noc3c2CCCC3)cc1C` [Compound C302], the entries for the “Firefly F4, cmpd/DMSO (mean)” value on NR2F6 (2 uM), at NR2F6 (10 uM) and on NR2F6 (40 uM) were 1.2, 0.9 and 0.9, respectively. Also, the fold induction at 2 µM with Renilla stood at 0.7; with HEK293 pGL4 it was 1.8. Moreover, the fold induction at 10 µM in the test on Renilla worked out at 1.1; in the test with HEK293 pGL4, 1.4. Moreover, the fold induction at 40 µM in the test with Renilla was 1; with HEK293 pGL4 it was 0.8.
